The results in this text go back to ChEMBL document CHEMBL1201862, “PubChem BioAssay data set” (2004).

The test system of test [1] is SN12K1. In words: cells. The test is classed as functional. As to conditions: Homo sapiens.
For test [2], the system named is P388/ADR. In words: cells. The class given is functional. As to conditions: Mus musculus.
The subject of test [3] is P388. As to the kind of experiment: cells. The test is classed as functional. Particulars: Mus musculus.
Test [4] concerns the target Nonstructural protein 1 (Influenza A virus, UniProt Q194T2). The class given is functional, Influenza A virus (A/California/07/2009(H1N1)).
The subject of test [5] is HEK293. As to the kind of experiment: inhibitors of LMP1-driven NF-kB reporter, dose response, cell-based, HEK293, luciferase, cherry-pick (AID 588343). The class given is functional. Particulars: Homo sapiens.
Test [6] addresses T1, Corticotropin-releasing factor receptor 2/Corticotropin-releasing factor-binding protein (Homo sapiens, UniProt P24387+Q13324).
T1 sequence (Q13324 whole entry): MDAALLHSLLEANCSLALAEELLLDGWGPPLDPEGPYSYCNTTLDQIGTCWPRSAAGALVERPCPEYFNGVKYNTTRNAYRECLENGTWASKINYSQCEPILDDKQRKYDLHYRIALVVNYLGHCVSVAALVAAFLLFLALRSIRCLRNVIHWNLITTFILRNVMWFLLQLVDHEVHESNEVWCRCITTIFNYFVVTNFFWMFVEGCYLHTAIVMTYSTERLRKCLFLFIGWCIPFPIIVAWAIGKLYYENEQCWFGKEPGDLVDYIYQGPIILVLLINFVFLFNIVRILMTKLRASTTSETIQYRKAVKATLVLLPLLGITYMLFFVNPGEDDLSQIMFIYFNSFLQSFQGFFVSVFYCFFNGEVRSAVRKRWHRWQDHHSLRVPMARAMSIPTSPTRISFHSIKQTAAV
T1 sequence (P24387 whole entry): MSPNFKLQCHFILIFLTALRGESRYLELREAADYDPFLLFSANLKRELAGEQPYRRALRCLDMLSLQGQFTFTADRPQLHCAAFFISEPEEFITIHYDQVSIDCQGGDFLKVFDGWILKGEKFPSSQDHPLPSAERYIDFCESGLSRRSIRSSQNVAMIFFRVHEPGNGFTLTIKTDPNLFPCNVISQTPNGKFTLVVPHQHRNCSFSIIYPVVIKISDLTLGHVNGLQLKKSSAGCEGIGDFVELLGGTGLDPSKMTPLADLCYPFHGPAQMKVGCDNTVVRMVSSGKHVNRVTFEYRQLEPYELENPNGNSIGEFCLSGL
In words: activators of CRF receptor 2 with binding protein – uHTS hits, confirmation (AID 602473). The test is classed as functional. Particulars: read-out: EC50_Mean.

The target in test [7] is T2, Heat shock factor protein 1 (Mus musculus, UniProt P38532).
T2 sequence (P38532 whole entry): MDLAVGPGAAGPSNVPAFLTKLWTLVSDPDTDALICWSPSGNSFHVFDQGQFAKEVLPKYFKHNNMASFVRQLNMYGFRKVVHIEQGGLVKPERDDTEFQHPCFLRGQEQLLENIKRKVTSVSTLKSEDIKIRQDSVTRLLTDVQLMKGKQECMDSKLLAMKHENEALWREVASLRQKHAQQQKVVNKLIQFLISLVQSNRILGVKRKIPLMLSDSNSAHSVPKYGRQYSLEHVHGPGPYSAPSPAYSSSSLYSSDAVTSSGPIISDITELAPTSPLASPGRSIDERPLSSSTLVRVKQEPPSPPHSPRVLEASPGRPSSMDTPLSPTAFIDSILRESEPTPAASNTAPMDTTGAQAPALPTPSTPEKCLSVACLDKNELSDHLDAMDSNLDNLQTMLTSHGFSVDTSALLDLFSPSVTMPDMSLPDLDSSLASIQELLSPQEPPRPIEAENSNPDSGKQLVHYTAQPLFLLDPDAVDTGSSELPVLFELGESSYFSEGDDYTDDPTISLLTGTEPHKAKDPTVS
As to the kind of experiment: inhibition of MG132-induced HSE-luciferase signal, confirmation, cell-based, NIH3T3, luminescence, dose retest (AID 2382).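 Note: NIH3T3 fibroblasts with HSF1-driven luciferase reporter stressed by proteasome inhibitor MG132; luminescence from HSF1-driven luciferase expression after 8 hours of MG132 stress.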 The test is classed as functional.

Test [8] deals with T3, Eukaryotic translation initiation factor 2-alpha kinase 3 (Homo sapiens, UniProt Q9NZJ5).
T3 sequence (Q9NZJ5 whole entry): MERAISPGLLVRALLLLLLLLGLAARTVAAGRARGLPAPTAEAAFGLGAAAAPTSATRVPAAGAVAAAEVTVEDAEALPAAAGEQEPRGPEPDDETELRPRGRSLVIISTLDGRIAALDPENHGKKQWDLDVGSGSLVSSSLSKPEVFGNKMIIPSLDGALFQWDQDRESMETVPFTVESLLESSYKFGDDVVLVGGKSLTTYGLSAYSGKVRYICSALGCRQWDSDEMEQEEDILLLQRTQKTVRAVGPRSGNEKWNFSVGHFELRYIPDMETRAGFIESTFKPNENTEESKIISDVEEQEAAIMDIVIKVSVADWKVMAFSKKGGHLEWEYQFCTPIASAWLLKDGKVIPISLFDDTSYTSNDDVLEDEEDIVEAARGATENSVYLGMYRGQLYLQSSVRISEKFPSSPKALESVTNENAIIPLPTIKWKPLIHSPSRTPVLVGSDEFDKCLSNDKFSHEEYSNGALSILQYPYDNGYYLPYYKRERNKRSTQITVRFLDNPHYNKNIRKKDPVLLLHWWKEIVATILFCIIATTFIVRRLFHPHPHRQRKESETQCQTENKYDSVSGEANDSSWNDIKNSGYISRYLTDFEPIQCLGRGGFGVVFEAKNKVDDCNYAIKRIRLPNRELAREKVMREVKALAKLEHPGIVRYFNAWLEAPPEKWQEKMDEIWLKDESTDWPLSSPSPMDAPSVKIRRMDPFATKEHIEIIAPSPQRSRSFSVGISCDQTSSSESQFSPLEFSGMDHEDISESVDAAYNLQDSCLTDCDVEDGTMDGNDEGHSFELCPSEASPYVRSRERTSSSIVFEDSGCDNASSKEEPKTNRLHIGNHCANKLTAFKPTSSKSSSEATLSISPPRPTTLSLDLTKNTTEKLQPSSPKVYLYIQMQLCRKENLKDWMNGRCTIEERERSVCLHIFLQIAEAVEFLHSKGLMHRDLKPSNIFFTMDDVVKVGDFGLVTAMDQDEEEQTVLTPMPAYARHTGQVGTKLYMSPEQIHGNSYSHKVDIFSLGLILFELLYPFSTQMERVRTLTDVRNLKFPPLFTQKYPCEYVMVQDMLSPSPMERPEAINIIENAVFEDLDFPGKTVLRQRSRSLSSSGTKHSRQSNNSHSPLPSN
In words: Counterscreen assay for PERK inhibitors: Dose response cell-based high throughput screening assay to measure inhibition of PERK at 6 hours. [Related pubchem assays: 1522, 1416 ]. The class given is functional.

The target in test [9] is T4, Replicative DNA helicase DnaB (Mycobacterium tuberculosis, UniProt P9WMR3).
T4 sequence (P9WMR3 whole entry): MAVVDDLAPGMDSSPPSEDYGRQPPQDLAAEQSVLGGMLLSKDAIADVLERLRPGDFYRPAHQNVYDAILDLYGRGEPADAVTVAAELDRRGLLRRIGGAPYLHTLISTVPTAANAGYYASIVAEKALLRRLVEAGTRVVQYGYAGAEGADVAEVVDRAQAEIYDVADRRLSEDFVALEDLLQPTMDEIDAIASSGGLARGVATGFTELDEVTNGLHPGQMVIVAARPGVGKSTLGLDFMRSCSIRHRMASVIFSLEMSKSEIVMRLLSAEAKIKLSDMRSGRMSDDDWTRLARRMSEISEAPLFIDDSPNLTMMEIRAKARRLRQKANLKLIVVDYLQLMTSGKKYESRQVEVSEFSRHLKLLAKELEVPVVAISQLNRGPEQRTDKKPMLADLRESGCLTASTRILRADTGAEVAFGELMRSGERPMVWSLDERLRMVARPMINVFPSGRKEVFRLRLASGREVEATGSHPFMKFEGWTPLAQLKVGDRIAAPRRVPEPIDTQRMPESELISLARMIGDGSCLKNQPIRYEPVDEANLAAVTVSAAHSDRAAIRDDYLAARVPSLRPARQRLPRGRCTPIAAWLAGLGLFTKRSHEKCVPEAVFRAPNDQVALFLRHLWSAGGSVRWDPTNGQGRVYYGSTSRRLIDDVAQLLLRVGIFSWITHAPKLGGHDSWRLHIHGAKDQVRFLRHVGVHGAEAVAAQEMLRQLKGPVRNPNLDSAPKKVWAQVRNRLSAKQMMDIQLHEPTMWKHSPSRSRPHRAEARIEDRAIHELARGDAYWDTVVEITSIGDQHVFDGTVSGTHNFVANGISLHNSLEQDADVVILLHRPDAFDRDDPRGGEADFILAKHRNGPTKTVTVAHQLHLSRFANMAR
In words: DnaB intein splicing inhibitors, dose response, biochemical, cell-free fluorescence (AID 449749). The class given is functional.

The target in test [10] is T5, Protein RecA (Mycobacterium tuberculosis, UniProt P9WHJ3).
T5 sequence (P9WHJ3 whole entry): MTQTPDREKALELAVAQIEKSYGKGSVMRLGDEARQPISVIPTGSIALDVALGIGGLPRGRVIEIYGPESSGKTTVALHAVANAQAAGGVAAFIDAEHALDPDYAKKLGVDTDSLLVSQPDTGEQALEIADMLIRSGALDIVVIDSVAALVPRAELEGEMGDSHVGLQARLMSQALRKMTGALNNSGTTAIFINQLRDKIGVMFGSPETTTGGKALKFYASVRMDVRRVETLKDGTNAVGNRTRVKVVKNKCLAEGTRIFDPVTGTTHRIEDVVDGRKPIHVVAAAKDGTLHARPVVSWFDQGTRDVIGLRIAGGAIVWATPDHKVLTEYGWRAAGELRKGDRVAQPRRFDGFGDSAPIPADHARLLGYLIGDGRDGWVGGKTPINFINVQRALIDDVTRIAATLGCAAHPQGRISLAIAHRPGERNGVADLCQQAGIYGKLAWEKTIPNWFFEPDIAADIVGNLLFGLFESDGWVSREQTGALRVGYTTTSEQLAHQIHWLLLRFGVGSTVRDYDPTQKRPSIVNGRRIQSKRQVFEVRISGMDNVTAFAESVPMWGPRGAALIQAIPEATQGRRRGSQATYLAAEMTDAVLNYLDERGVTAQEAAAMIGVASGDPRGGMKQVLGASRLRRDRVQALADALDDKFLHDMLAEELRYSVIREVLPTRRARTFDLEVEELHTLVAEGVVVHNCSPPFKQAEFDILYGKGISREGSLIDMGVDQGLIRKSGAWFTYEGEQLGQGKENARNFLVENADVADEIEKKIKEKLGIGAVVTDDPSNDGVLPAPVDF
As to the kind of experiment: Fluorescence Cell-Free Homogeneous Dose Retest to Identify Inhibitors of RecA-Intein Splicing Activity. [Related pubchem assays (depositor defined):AID2097, AID2223, AID489010, AID492950]. The class given is functional.

For test [11], the target named is T3, Eukaryotic translation initiation factor 2-alpha kinase 3. In words: Dose response cell-based high-throughput screening assay to measure PERK inhibition. [Related pubchem assays: 1416 ]. The class given is functional.
A short description of test [12]: AlphaScreen signal interference compounds, dose response, artefact control for ARNT-TACC3 interaction inhibitor project, biochemical, luminescence, cherry-pick (AID 651705).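 Note: AlphaScreen bead proximity signal that flags compounds interfering with the detection technology; potency reflects signal decrease which marks the compound as an assay artifact.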 The test is classed as functional. In general terms: In Alpha technology, singlet oxygen from a donor bead excites a nearby acceptor bead.

Calls of active or inactive are those of the source.

Chain of Nonstructural protein 1 (Q194T2 whole entry): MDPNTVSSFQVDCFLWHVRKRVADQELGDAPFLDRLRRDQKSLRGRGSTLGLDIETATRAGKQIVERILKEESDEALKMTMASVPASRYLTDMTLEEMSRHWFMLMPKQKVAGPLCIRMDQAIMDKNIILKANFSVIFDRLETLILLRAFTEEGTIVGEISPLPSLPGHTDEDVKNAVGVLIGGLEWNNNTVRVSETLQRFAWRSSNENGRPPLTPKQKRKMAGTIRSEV

Turning to `CC(=O)OCC1OC(n2cc(F)c(=O)[nH]c2=O)C(N)C(OC(C)=O)C1OC(C)=O` (stereo not given), the GI50 in test [1], in test [2] and in [3] was > 100 µM (inactive) each time.

In the case of `Cc1cc(O)nc(NN=Cc2cc(Br)ccc2O)n1`, in test [4], the IC50 (as a rule, the concentration needed to halve the response being measured) is 12.2 µM (active). In addition, the AC50 (usually the concentration at which the activity in the assay is half-maximal) in [5] is 5.26 µM (active).

For the compound `CCN1C(=O)C(=CNc2ccc(N3CCOCC3)c(Br)c2)C(=O)N(CC)C1=S`, the EC50 in [6] is > 53 µM (inactive); in test [7], > 195 µM (not active). For the same compound, the AC50 in test [5] is > 350 µM (inactive).

On to `Cc1[nH]c(=O)[nH]c(=O)c1/C=C/C(=O)NC(CO)C[S+]([O-])C[S+](C)[O-]` (stereo not given), for which the GI50 – broadly, the concentration giving 50% growth inhibition – was 9.38 µM (inactive) in test [1], 23.2 µM (inactive) in test [2] and 19.4 µM (inactive) in [3].

On to `Cc1ccccc1-n1nc(C)c2cc(C(=O)NC3CC3)sc21`, for which, in [5], the AC50 is 196 µM (active).

As for `CN1N=C(C(C)(C)C)CC1=O`, the results for the EC50 in [8], in test [10] and in test [11] were > 55.7 µM (not active), 2.5 µM (active) and > 55.7 µM (not active), respectively. Also, in test [9], the AC50 is 9.6 µM (active).

Take `C/C=C1\NC(=O)[C@H]2CSSCCC=C[C@H](CC(=O)N[C@H](C(C)C)C(=O)N2)OC(=O)[C@H](C(C)C)NC1=O`: the GI50 is < 0.01 µM (active) in test [1], < 0.0241 µM (active) in [2] and < 0.01 µM (active) in [3].

`N#CC1=C(N)Oc2c(ccc3cccnc23)C1c1ccncc1` (stereo not given): the AC50 in test [12] is 99.4 µM (active).

For `Cc1ccc(C(=O)Nc2cccc(C(F)(F)F)c2)cc1Nc1[nH]cnc2ncnc1-2`, the AC50 in test [5] was 7.93 µM (active).

In the case of `O=C1CSc2sc(=S)sc2S1`, the GI50 in test [1] was > 100 µM (inactive); in [2], 27.7 µM (inactive); in test [3], 31.2 µM (inactive).

Regarding `C[S+]([O-])c1cc(=O)c2ccccc2s1` (stereo not given), the GI50 in [1] was 17.8 µM (inactive); in test [2], 2.66 µM (inactive); in test [3] it was 1.83 µM (inactive).

As for `O=C1Nc2ccccc2Nc2ccncc21`, the GI50 is > 100 µM (inactive) in test [1], > 31.6 µM (inactive) in [2] and > 100 µM (inactive) in test [3].
